Where a name gives a salt, the structure may show the parent alone.
| Compound | melting point |
| --- | --- |
| COc1c(N2CCC(C(=O)O)C2)c(F)cc2c(=O)n(N)c(=O)n(C3CC3)c12.O=C(O)C(F)(F)F (stereo not drawn) | 252 °C (dec.) |
| Cc1c(N2CCC(C(=O)O)C2)c(F)cc2c(=O)n(N)c(=O)n(C3CC3)c12.O=C(O)C(F)(F)F (stereo not drawn) | 226 °C (dec.) |
| COc1c(N2CCCC(CN)C2)c(F)cc2c(=O)n(N)c(=O)n(C3CC3)c12.Cl (stereo not drawn) | 201 °C |
| Cl.Nn1c(=O)c2cc(F)c(N3CCC(N)(c4ccccc4)C3)c(Cl)c2n(C2CC2)c1=O (stereo not drawn) | 198 to 200 °C |
| Cc1c(N2CCC(C)(N)C2)c(F)cc2c(=O)n(N)c(=O)n(C3CC3)c12.Cl (stereo not drawn) | 237 to 240 °C |
| COc1c(N2CCCC2)c(F)cc2c(=O)n(N)c(=O)n(C3CC3)c12.Cl | 92 to 94 °C |
| Cc1c(N2CCC(C(C)(C)O)C2)c(F)cc2c(=O)n(N)c(=O)n(C3CC3)c12.Cl (stereo not drawn) | 116 to 120 °C |
| COc1c(N2CCC(C(C)(C)O)C2)c(F)cc2c(=O)n(N)c(=O)n(C3CC3)c12.Cl (stereo not drawn) | 134 °C (dec.) |
| CCN[C@@H](C)[C@@H]1CCN(c2c(F)cc3c(=O)n(N)c(=O)n(C4CC4)c3c2C)C1.Cl | 210 to 215 °C |
| COc1c(N2CCC(CN)CC2)c(F)cc2c(=O)n(N)c(=O)n(C3CC3)c12.Cl | 201 °C |
| COc1c(N2CCC3(CC3N)C2)c(F)cc2c(=O)n(N)c(=O)n(C3CC3)c12.Cl (stereo not drawn) | > 250 °C |
| Cc1c(N2CC3CCCCC3(CN)C2)c(F)cc2c(=O)n(N)c(=O)n(C3CC3)c12.Cl (stereo not drawn) | > 250 °C |
| Cc1c(N2CC3C(N)C3C2)c(F)cc2c(=O)n(N)c(=O)n(C3CC3)c12.Cl (stereo not drawn) | 180 to 182 °C |
| Cl.NCC1CCN(c2cc3c(cc2F)c(=O)n(N)c(=O)n3C2CC2)C1 (stereo not drawn) | 170 to 172 °C |
| COc1c(N2CCC(N)C2)c(F)cc2c(=O)n(N)c(=O)n(C3CC3)c12.Cl (stereo not drawn) | 216 to 218 °C |
| CCn1c(=O)n(N)c(=O)c2ccc(N3CC[C@H](N)C3)c(F)c21.Cl | 248 to 251 °C |
| CCn1c(=O)n(N)c(=O)c2cc(F)c(N3CC[C@@H](C(C)(C)N)C3)cc21.Cl | > 250 °C |
| Cc1c(N2CCC(N)C2)c(F)cc2c(=O)n(N)c(=O)n(C3CC3)c12.O=C(O)C(F)(F)F (stereo not drawn) | 110 to 112 °C |
| COc1cc2c(=O)n(N)c(=O)n(C3CC3)c2c(F)c1N1CCC(N)C1.Cl (stereo not drawn) | 208 to 210 °C |
| COc1c(N2CC[C@H]([C@H](C)N)C2)c(F)cc2c(=O)n(N)c(=O)n(C3CC3)c12.Cl | 221 to 223 °C |
| Cc1c(N2CC[C@H]([C@H](C)N)C2)c(F)cc2c(=O)n(N)c(=O)n(C3CC3)c12.Cl | 192 to 194 °C |

| Compound | melting point |
| --- | --- |
| CC1COc2c(N3CC[C@H](N)C3)c(F)cc3c(=O)n(N)c(=O)n1c23.Cl (stereo partly drawn) | 202 to 204 °C |
| CC1COc2c(N3CC[C@@H]([C@H](C)N)C3)c(F)cc3c(=O)n(N)c(=O)n1c23.Cl (stereo partly drawn) | 192 to 194 °C |
| CC1CCc2c(N3CC[C@@H]([C@H](C)N)C3)c(F)cc3c(=O)n(N)c(=O)n1c23.Cl (stereo partly drawn) | 197 to 199 °C |
| Cl.N[C@H]1CCN(c2nc3c(cc2F)c(=O)n(N)c(=O)n3C2CC2)C1 | 213 to 215 °C |
| CC(C)(N)[C@@H]1CCN(c2nc3c(cc2F)c(=O)n(N)c(=O)n3C2CC2)C1.Cl | > 260 °C |
| Cl.Cl.NCC1CCCN(c2nc3c(cc2F)c(=O)n(N)c(=O)n3C2CC2)C1 (stereo not drawn) | 152 to 154 °C |
| Cl.Nn1c(=O)c2cc(F)c(N3CCC(CNCC(F)(F)F)C3)c(Cl)c2n(C2CC2)c1=O (stereo not drawn) | 163 to 164 °C |
| Cl.NCC1CCCN(c2c(F)cc3c(=O)n(N)c(=O)n(C4CC4)c3c2Cl)C1 (stereo not drawn) | 131 to 133 °C |
| Cl.NCC1CCN(c2c(Cl)cc3c(=O)n(N)c(=O)n(C4CC4)c3c2Cl)C1 (stereo not drawn) | 147 to 149 °C |
| Cc1c(F)c(N2CC[C@H]([C@@H](C)N)C2)cc2c1c(=O)n(N)c(=O)n2C1CC1.Cl | 245 to 247 °C |
| Cc1c(N2CC(C(C)N)C(C)(C)C2)c(F)cc2c(=O)n(N)c(=O)n(C3CC3)c12.Cl (stereo not drawn) | 246 °C |
| Cc1c(N2CCC(N)(c3ccccc3)C2)c(F)cc2c(=O)n(N)c(=O)n(C3CC3)c12.Cl (stereo not drawn) | 236 °C |
| Cc1c(N2CC(C)C(C(C)N)C2)c(F)cc2c(=O)n(N)c(=O)n(C3CC3)c12.Cl (stereo not drawn) | 240 °C |
| Cc1c(N2CCC(CN)(c3ccccc3)C2)c(F)cc2c(=O)n(N)c(=O)n(C3CC3)c12.Cl (stereo not drawn) | 227 to 231 °C |
| Cc1c(N2CC(CN)C3(CC3)C2)c(F)cc2c(=O)n(N)c(=O)n(C3CC3)c12.Cl (stereo not drawn) | 167 °C |
| Cc1c(N2CCCC(CN)C2)c(F)cc2c(=O)n(N)c(=O)n(C3CC3)c12.Cl (stereo not drawn) | 219 to 221 °C |
| COC1CN(c2c(F)cc3c(=O)n(N)c(=O)n(C4CC4)c3c2C)CC1N.Cl (stereo not drawn) | > 250 °C |
| COc1c(N2CC(N)C(OC)C2)c(F)cc2c(=O)n(N)c(=O)n(C3CC3)c12.Cl (stereo not drawn) | > 250 °C |
| NC1C2CN(c3c(F)cc4c(=O)n(N)c(=O)n(C5CC5)c4c3Cl)CC12 (stereo not drawn) (as salt: hydrochloride) | 111 to 114 °C |
| CC1CCc2c(N3CC[C@H](N)C3)c(F)cc3c(=O)n(N)c(=O)n1c23 (stereo partly drawn) (as salt: hydrochloride) | 202 to 204 °C |

Continued, values first:

| melting point | Compound |
| --- | --- |
| 183 to 185 °C | COc1c(N2CC3CC3(CN)C2)c(F)cc2c(=O)n(N)c(=O)n(C3CC3)c12.Cl (stereo not drawn) |
| 189 to 194 °C | Cc1c(N2CC3CC3(CN)C2)c(F)cc2c(=O)n(N)c(=O)n(C3CC3)c12.Cl (stereo not drawn) |
| 220 °C | Cc1c(N2CC3CCCNC3C2)c(F)cc2c(=O)n(N)c(=O)n(C3CC3)c12.Cl (stereo not drawn) |
| 204.5 °C | COc1c(N2CC(C)C(C(C)N)C2)c(F)cc2c(=O)n(N)c(=O)n(C3CC3)c12.Cl (stereo not drawn) |
| 178 to 180 °C | Cc1c(N2CCCC2)c(F)cc2c(=O)n(N)c(=O)n(C3CC3)c12.Cl |
| 182 to 185 °C | CN[C@@H](C)[C@@H]1CCN(c2cc3c(c(C)c2F)c(=O)n(N)c(=O)n3C2CC2)C1.Cl |
| > 190 °C | COc1c(N2CC3C(N)CC3(C)C2)c(F)cc2c(=O)n(N)c(=O)n(C3CC3)c12.Cl (stereo not drawn) |
| > 250 °C | COc1c(N2CC3CCCCC3(CN)C2)c(F)cc2c(=O)n(N)c(=O)n(C3CC3)c12.Cl (stereo not drawn) |
| 158 to 160 °C | Cl.NCCC1CCN(c2c(F)cc3c(=O)n(N)c(=O)n(C4CC4)c3c2Cl)C1 (stereo not drawn) |
| 117 to 120 °C | CC(C)(N)[C@@H]1CCN(c2c(F)cc3c(=O)n(N)c(=O)n(C4CC4)c3c2Cl)C1.Cl |
| 96 to 98 °C | Cl.Nn1c(=O)c2cc(F)c(N3CCCC3)c(Cl)c2n(C2CC2)c1=O |
| 210 to 212 °C | NC1CCN(c2ccc3c(=O)n(N)c(=O)n(C4CC4)c3c2F)C1.O=C(O)C(F)(F)F (stereo not drawn) |
| 135 to 137 °C | NC1CCN(c2c(Cl)cc3c(=O)n(N)c(=O)n(C4CC4)c3c2F)C1.O=C(O)C(F)(F)F (stereo not drawn) |
| > 250 °C | Cl.N[C@H]1CCN(c2cc3c(cc2F)c(=O)n(N)c(=O)n3C2CC2)C1 |
| 82 to 84 °C | Cc1c(N2CCC(CN)C2)c(F)cc2c(=O)n(N)c(=O)n(C3CC3)c12.O=C(O)C(F)(F)F (stereo not drawn) |
| 180 to 182 °C | COc1c(N2CCC(CN)C2)c(F)cc2c(=O)n(N)c(=O)n(C3CC3)c12.Cl (stereo not drawn) |
| 277 °C | Cl.N#Cc1c(N2CCC(N)C2)c(F)cc2c(=O)n(N)c(=O)n(C3CC3)c12 (stereo not drawn) |
| 268 to 270 °C | Cl.NC1C2CN(c3nc4c(cc3F)c(=O)n(N)c(=O)n4C3CC3)CC12 (stereo not drawn) |
| 200 to 203 °C | Cl.Nn1c(=O)c2cc(F)c(N3CC4CCNCC4C3)nc2n(C2CC2)c1=O (stereo not drawn) |
| 200 to 202 °C | Cl.Nn1c(=O)c2cc(F)c(C3CCC4CNCC4N3)nc2n(C2CC2)c1=O (stereo not drawn) |

| melting point | Compound |
| --- | --- |
| 137 to 139 °C | CN[C@H](C)[C@@H]1CCN(c2nc3c(cc2F)c(=O)n(N)c(=O)n3C2CC2)C1.Cl |
| > 260 °C | C[C@H](N)[C@@H]1CCN(c2nc3c(cc2F)c(=O)n(N)c(=O)n3C2CC2)C1.Cl |
| 153 to 155 °C | CN[C@@H](C)[C@@H]1CCN(c2c(F)cc3c(=O)n(N)c(=O)n(C4CC4)c3c2C)C1.Cl |
| 178 to 180 °C | Cc1c(N2CC(C(C)N)C3(CC3)C2)c(F)cc2c(=O)n(N)c(=O)n(C3CC3)c12.Cl (stereo not drawn) |
| 148 to 150 °C | Cl.NCC1(Cc2ccccc2)CCN(c2c(F)cc3c(=O)n(N)c(=O)n(C4CC4)c3c2Cl)C1 (stereo not drawn) |
| 164 to 166 °C | C[C@H](N)[C@@H]1CCN(c2c(F)cc3c(=O)n(N)c(=O)n(C4CC4)c3c2Cl)C1.Cl |
| 109 to 112 °C | CS(=O)(=O)NCC1CCN(c2c(F)cc3c(=O)n(N)c(=O)n(C4CC4)c3c2Cl)C1.Cl (stereo not drawn) |
| 125 to 127 °C | CC(C)NCC1CCN(c2c(F)cc3c(=O)n(N)c(=O)n(C4CC4)c3c2Cl)C1.Cl (stereo not drawn) |
| 200 to 202 °C | Cc1c(N2CC[C@@H](C(C)(C)N)C2)c(F)cc2c(=O)n(N)c(=O)n(C3CC3)c12.Cl |
| 190 to 192 °C | COC1(C(C)N)CCN(c2c(F)cc3c(=O)n(N)c(=O)n(C4CC4)c3c2C)C1.Cl (stereo not drawn) |
| 190 to 192 °C | COc1c(N2CCC(F)(C(C)N)C2)c(F)cc2c(=O)n(N)c(=O)n(C3CC3)c12.Cl (stereo not drawn) |
| 238 to 240 °C | Cc1c(F)c(N2CCC(N)C2)cc2c1c(=O)n(N)c(=O)n2C1CC1.Cl (stereo not drawn) |
| 172 to 177 °C | COCC1(CN)CCN(c2c(F)cc3c(=O)n(N)c(=O)n(C4CC4)c3c2C)C1.Cl (stereo not drawn) |
| 198 °C | COc1c(N2CCCC(C(C)N)C2)c(F)cc2c(=O)n(N)c(=O)n(C3CC3)c12.Cl (stereo not drawn) |
| 200 °C | Cc1c(N2CCCC(CCN)C2)c(F)cc2c(=O)n(N)c(=O)n(C3CC3)c12.Cl (stereo not drawn) |
| 230 °C | COc1c(N2CC(C(C)N)C(C)(C)C2)c(F)cc2c(=O)n(N)c(=O)n(C3CC3)c12.Cl (stereo not drawn) |
| 178 °C | COc1c(N2CC(CN)C3(CC3)C2)c(F)cc2c(=O)n(N)c(=O)n(C3CC3)c12.Cl (stereo not drawn) |
| 202 °C | COc1c(N2CCC(O)(CN)C2)c(F)cc2c(=O)n(N)c(=O)n(C3CC3)c12.Cl (stereo not drawn) |
| > 250 °C | COc1c(N2CC(N)C(F)C2)c(F)cc2c(=O)n(N)c(=O)n(C3CC3)c12.Cl (stereo not drawn) |
| 210 °C | Cc1c(N2CCC(C)(CN)C2)c(F)cc2c(=O)n(N)c(=O)n(C3CC3)c12.Cl (stereo not drawn) |

Source: patent US7582627B2, “3-aminoquinazolin-2,4-dione antibacterial agents” (Warner-Lambert Company, priority 2000, dated 2009)
